From patent publication US20200068887A1, “TREATMENT FOR REMOVING ECTOPARASITES FROM FISH” (priority 2016, published 2020)

What was measured:
Assay type in all cases: in vivo
farmed Atlantic salmon = assay: Observation of fish during field treatment; settings: 20 ppm, 60 minutes, well boat
Experimental: The effectiveness of imidacloprid against pre-adult and adult stages of L. salmonis and Caligus sp. infections on farmed Atlantic salmon was investigated by performing pre- and post-treatment sea lice counts on salmon undergoing a treatment with imidacloprid. This trial was conducted at a commercial salmon farm in Norway. The salmon were pumped onto a well boat and were exposed to 20 ppm imidacloprid for 60 minutes. The average weight of the salmon was 3.5 kg and the average number of salmon per pen was 180,000. 30 fish per pen were assessed for L. salmonis and Caligus sp., and the number of each L. salmonis life stage found was recorded. This was performed within 24 hours prior to treatment, and within 24 hours after treatment.
The numbers of sea lice observed per fish for this trial for each of the four tested pens according to sea lice life cycle state, pre- or post-administration of active are presented in Table 5.

salmon louse [1] = assay: Bath treatment of lice-infected Atlantic salmon, percent lice removed; settings: 12° C.
Experimental: To determine the concentration- and time-dependence of imidacloprid treatment in vivo, Atlantic salmon (average of 320.9 g) were challenged with imidacloprid in seawater (32.5%0 salinity) at 12° C. The water level in the tank was lowered and aeration was employed during administration of the active. The salmon louse copepodid culture was counted and adjusted to obtain a target level of around 40 copepodids per fish in the challenge tank at each challenge time point.
Salmon lice on the fish were counted using standard methods. Only lice on the fish's outer surface, not including gills and oral/buccal cavities, were investigated.
(§1) Numbers of dissociated lice in tank water or attached to the tank walls were recorded. Lice in the tank water were collected and assessed for ability to attach by suction to a smooth plastic surface immediately after treatment and again after 30-60 minutes (to assess possible revival). Live and viable lice were also collected from the mock-treated control groups for reference and held in revival chambers for the same period of time to assess the system.
The test solutions of the active were prepared (added and homogenised with seawater) and administered to a treatment volume of 40 litres.
Three sea lice-infected fish from the holding tank were randomly gathered and carefully steered into a barrel forming an inner compartment (diameter=34.5-40 cm; height=54 cm) that was submerged in the tank and in which the base has been replaced with a plastic mesh screen with 9 mm^2 square holes.
The fish were transferred to the inner compartment within 3 minutes of each test start. The inner compartment was suspended/submerged in the holding tank pending treatment. Treatments and mock treatments were implemented by draining the inner compartment with fish and transferring it to a barrel containing the test solution. Treatments/mock treatments were performed in static water with aeration/oxygenation. Aeration was adjusted to set the oxygen saturation to 70-100%.
To terminate the treatment, the inner compartment with treated fish was lifted to the surface and drained, then fish were transferred directly and without water to a second basin with a lethal overdose of anaesthetic and left until dead. All lice remaining on these fish and lice that fell off in the anaesthetic bath were recorded.
Exposure times with imidacloprid ranged from 3 to 60 minutes, and doses ranged from 20 ppm to 200 ppm.
Negative control groups at 3- and 60 minutes were duplicated. Superscript numbers denote the total number of lice on the 3 fish in each test.
By way of comparison, fish infected with sea lice from the same sources were treated with azamethiphos at 0.1 mg/l and deltamethrin at 0.2 μ/l for 30 minutes, per the recommended dosage regimes. Treatments were carried out under similar conditions as those treated with imidacloprid. A mock-treatment control was also administered. Each treatment condition was administered in duplicate.
Superscript numbers denote the total number of lice on the 3 fish in each test.

salmon louse [2] = assay: Revival rates of sea lice after bath treatment
Experimental: as §1
Remaining lice in the treatment bath were strained through a plankton mesh (2 mm pore size) that was suspended in a water bath with clean seawater. The lice in this collector were transferred to a plastic beaker (1 litre) and then again into a revival tube (5 cm diameter; 10 cm length). Lice that are able to attach to the walls of the treatment tanks or beaker within 3 minutes of completion of each test were scored as viable.

Atlantic salmon = assay: Fish behaviour/appearance and mortality during bath treatment trial; settings: 20 ppm to 200 ppm, exposure 3 to 60 minutes
Experimental: Fish behaviour/appearance was assessed in vivo during each test. Any changes in behaviour and/or appearance including mortality were recorded.

SMILES: O=[N+]([O-])NC1=NCCN1Cc1ccc(Cl)nc1 [imidacloprid]
- adverse behaviours of fish throughout treatment (farmed Atlantic salmon): no adverse behaviours seen
- percentage lice removed from fish after treatment relative to total numbers of lice (salmon louse [1]; 20 ppm, 30 minutes, total 36 lice on 3 fish): 63.9^36%
- percentage lice removed from fish after treatment relative to total numbers of lice (salmon louse [1]; 20 ppm, 60 minutes, total 27 lice on 3 fish): 74.1^27%
- percentage lice removed from fish after treatment relative to total numbers of lice (salmon louse [1]; 50 ppm, 30 minutes, total 23 lice on 3 fish): 91.3^23%
- percentage lice removed from fish after treatment relative to total numbers of lice (salmon louse [1]; 100 ppm, 3 minutes, total 43 lice on 3 fish): 7.0^43%
- percentage lice removed from fish after treatment relative to total numbers of lice (salmon louse [1]; 100 ppm, 15 minutes, total 38 lice on 3 fish): 73.7^38%
- percentage lice removed from fish after treatment relative to total numbers of lice (salmon louse [1]; 200 ppm, 5 minutes, total 34 lice on 3 fish): 55.9^34%
- percentage lice removed from fish after treatment relative to total numbers of lice (salmon louse [1]; 200 ppm, 15 minutes, total 47 lice on 3 fish): 91.5^47%
- % active at 30-60 min. post-treatment, Attached lice collected from fish (salmon louse [2]; 20 ppm 30 min, n lice 9): 11.1%
- % active at 30-60 min. post-treatment, Detached lice collected from tank water (salmon louse [2]; 20 ppm 30 min, n lice 23): 4.3%
- % active at 30-60 min. post-treatment, Detached lice collected from tank water (salmon louse [2]; 20 ppm 60 min, n lice 20): 0.0%
- % active at 30-60 min. post-treatment, Detached lice collected from tank water (salmon louse [2]; 50 ppm 30 min, n lice 31): 0.0%
- % active at 30-60 min. post-treatment, Detached lice collected from tank water (salmon louse [2]; 100 ppm 3 min, n lice 3): 33.3%
- % active at 30-60 min. post-treatment, Detached lice collected from tank water (salmon louse [2]; 100 ppm 15 min, n lice 28): 0.0%
- % active at 30-60 min. post-treatment, Attached lice collected from fish (salmon louse [2]; 200 ppm 5 min, n lice 13): 0.0%
- % active at 30-60 min. post-treatment, Detached lice collected from tank water (salmon louse [2]; 200 ppm 5 min, n lice 13): 0.0%
- % active at 30-60 min. post-treatment, Detached lice collected from tank water (salmon louse [2]; 200 ppm 15 min, n lice 43): 0.0%
- fish mortality in the trial (Atlantic salmon): No fish died in the trial
